The test system of series [1] is passive cutaneous anaphylaxis. Nature of the series: passive cutaneous anaphylaxis test (PCA), egg albumin as the antigen: antiallergic activity. In kind it is in vivo. Conditions: iv; rat; injected intravenously together with the antigen; at least 3 groups of 5 rats; read-out: ID50 (dose which reduced the diameter of the wheel by 50%). As to the method: Compounds representative of the above examples were evaluated for antiallergic activity in the rat by the passive cutaneous anaphylaxis test (hereafter PCA), utilizing egg albumin as the antigen.
(§1) The intensity of such PCA reaction is assessed by measuring the diameters of wheals which develop in the skin of the test animal. Details of the PCA test can be found in the following references: I. Motar, Life Sciences, 1:465 (1963); and B. Ogilvie, Immunology, 12:113 (1967).
In the following table, ID50 is the dose which reduced the diameter of the wheel by 50% when injected intravenously together with the antigen. At least 3 groups of 5 rats were used to determine the ID50 for each compound tested. The reference compound utilized was disodium chromoglycate (DSCG). The test compounds are identified by their respective Example Numbers above.

A short description of series [2]: acute toxicity tests, intravenous, animals observed for one week. Conditions: in vivo, rat, dose is the maximum possible, limited by solubility, read-out: Therapeutic Ratio (Dose/ID50). As to the method: Acute toxicity of compounds representative of the above Examples was determined in rats. The test compounds were administered intravenously in either 40 ml/kg of physiological saline or […] and saline. Compounds which are insoluble in saline were administered in […] and saline. Doses administered represent the maximun dose possible and are limited by solubility factors. ID50 in the table is used as defined in Example 66. Test compounds are identified by their respective Example Number, above.

The test system of series [3] is passive cutaneous anaphylaxis. Nature of the series: duration of antiallergic activity by the PCA test, compared directly with DSCG. The series is classed as in vivo. Conditions: rat; for Mean Reaction Diameters in Milimeters After 25 μ moles/kg of Test Compound: 25 μ moles/kg test compound 10 minutes before egg albumin antigen, groups of 10 animals. How it is done:
as §1
The duration of antiallergic activity of compounds representative of the above examples was also determined by the PCA test described in Example 66. In each case, 25 μ moles of the test compound were administered 10 minutes before injection of the egg albumin antigen in rats. The following table reports the mean reactions diameters of wheals in milimeters for the compounds described in the above Examples and disodium cromoglycate (DSCG). In order to achieve maxium significance of results, the effect of each compound was compared directly with DSCG using groups of 10 animals selected at random from the same population.

In series [4] the test system is allergic bronchial asthma. Conditions: in vivo; cited from earlier work.

“And” between values parts separate entries of the source, which are not always exact repeats. Identical values can stand only once. Counter-ions that a name gives are not always drawn.

The values below come from patent US3953604A, “1-(2-Substituted-chromonyloxy)-2-hydroxy-3-(substituted phenoxy)propanes” (priority 1973, dated 1976).

As for `O=C(O)c1cc(=O)c2ccc(OCC(O)COc3ccccc3)cc2o1` (centres unmarked) [Example 41, 1-(2-Carboxychromon-7-yloxy)-2-Hydroxy-3-Phenoxypropane Sodium Salt], the ED50 in series [1] turned out to be 14 µmol/kg.

In the case of `O=C(O)c1cc(=O)c2c(OCC(O)COc3ccc(Br)cc3)cccc2o1` (centres unmarked) [Example 8, 1-(2-Carboxychromon-5-yloxy)-2-Hydroxy-3-p-Bromophenoxypropane Sodium Salt], in series [1], the ED50 was determined as 6.5 µmol/kg. Further, the selectivity ratio at 168 h in series [2] is above 40. The “Mean Reaction Diameters in Milimeters After 25 μ moles/kg of Test Compound” value (from here on “Mean Reaction Diameters … of Test Compound”) in series [3] is given as 6.4 ± 0.4 Milimeters.

For the compound `O=C(O)c1cc(=O)c2c(OCC(O)COc3ccc(Cl)cc3)cccc2o1` (centres unmarked) [Example 11, 1-(2-Carboxychromon-5-yloxy)-2-Hydroxy-3-p-Chlorophenoxypropane], in series [1], the ED50 was 5.5 µmol/kg. Also, the selectivity ratio at 168 h in series [2] is above 43. The “Mean Reaction Diameters … of Test Compound” value in series [3] is recorded as 2.8 ± 0.4 Milimeters.

On to `O=C(O)c1cc(=O)c2c(OCC(O)COc3ccc([N+](=O)[O-])cc3)cccc2o1` (centres unmarked) [Example 38, 1-(2-Carboxychromon-5-yloxy)-2-Hydroxy-3-p-Nitrophenoxypropane Sodium Salt], for which the ED50 in series [1] came out at 3.6 µmol/kg. For the same compound, the selectivity ratio at 168 h in series [2] is above 173. Further, the “Mean Reaction Diameters … of Test Compound” value in series [3] came out at 11.2 ± 0.3 Milimeters.

As for `COc1ccc(OCC(O)COc2cccc3oc(C(=O)O)cc(=O)c23)cc1` (centres unmarked) [Example 15, 1-(2-Carboxychromon-5-yloxy)-2-Hydroxy-3-p-Methoxyphenoxypropane Sodium Salt], in series [1], the ED50 stood at 20 µmol/kg. Moreover, in series [2], the selectivity ratio at 168 h was above 62. Also, in series [3], the “Mean Reaction Diameters … of Test Compound” value came to 11.0 ± 0.5 Milimeters.

`CCOC(=O)c1ccc(OCC(O)COc2cccc3oc(C(=O)O)cc(=O)c23)cc1` (centres unmarked) [Example 44, 1-(2-Carboxychromon-5-yloxy)-2-Hydroxy-3-p-Carbethoxyphenoxypropane Sodium Salt]: in series [1], the ED50 stood at 8.25 µmol/kg. In addition, the “Mean Reaction Diameters … of Test Compound” value in series [3] worked out at 6.1 ± 0.4 Milimeters.

With `CC(=O)c1c(O)cccc1OCC(O)COc1cccc(C(F)(F)F)c1` (centres unmarked) [Example 57, 1-(2-Acetyl-3-hydroxphenoxy)-2-Hydroxy-3-(m-trifluoromethylphenoxy) propane], in series [3], the “Mean Reaction Diameters … of Test Compound” value was determined as 8.4 ± 0.5 Milimeters.

In the case of `N#Cc1ccc(OCC(O)COc2cccc3oc(C(=O)O)cc(=O)c23)cc1` (centres unmarked) [Example 35, 1-(2-Carboxychromon-5-yloxy)-2-Hydroxy-3-p-Cyanophenoxypropane Sodium Salt], the ED50 in series [1] amounted to 0.75 µmol/kg. Moreover, the selectivity ratio at 168 h in series [2] was above 3170. In addition, in series [3], the “Mean Reaction Diameters … of Test Compound” value was 8.9 ± 0.7 Milimeters.

For `CCOC(=O)c1cc(=O)c2c(OCC(O)COc3ccc(C#N)cc3)cccc2o1` (centres unmarked) [Example 34, 1-(2-Carbethoxychromon-5-yloxy)-2-Hydroxy-3-p-Cyanophenoxypropane], the ED50 in series [1] came to 2.5 µmol/kg. For the same compound, in series [2], the selectivity ratio at 168 h is above 84.

On to `O=C(O)c1cc(=O)c2c(OCC(O)COc3cccc4oc(C(=O)O)cc(=O)c34)cccc2o1` [DSCG, 1,3-di(2-carboxy-4-oxochromon-5-yloxy)-2-hydroxy-propane disodium salt, reference compound], for which the untoward side effects entry in series [4] is listed as “several untoward side effects”. In addition, in series [2], the selectivity ratio at 168 h is above 1150. For the same compound, the “Mean Reaction Diameters in Milimeters After 25 μ moles/kg of DSCG” value in series [3] (25 μ moles/kg DSCG 10 minutes before egg albumin antigen, direct comparison with the test compound of the same line, disodium salt) was 13.4 ± 0.3 Milimeters and 10.6 ± 0.7 Milimeters and 9.7 ± 0.3 Milimeters and 8.9 ± 0.8 Milimeters and 8.6 ± 0.3 Milimeters and 12.3 ± 0.2 Milimeters.

Consider `O=C(O)c1cc(=O)c2c(OCC(O)COc3ccccc3)cccc2o1` (centres unmarked) [Example 4, 1-(2-Carboxychromon-5-yloxy)-2-Hydroxy-3-Phenoxypropane Sodium Salt], for which the ED50 in series [1] was 6.25 µmol/kg. Further, the selectivity ratio at 168 h in series [2] is above 339. The “Mean Reaction Diameters … of Test Compound” value in series [3] was determined as 13.0 ± 0.3 Milimeters.

For `O=C(O)c1cc(=O)c2c(OCC(O)COc3ccc(F)cc3)cccc2o1` (centres unmarked) [Example 65, 1-(2-Carboxychromon-5-yloxy)-2-Hydroxy-3-(p-fluorophenoxy)propane Sodium Salt], the “Mean Reaction Diameters … of Test Compound” value in series [3] amounted to 12.2 ± 0.2 Milimeters.

For the compound `Cc1ccccc1OCC(O)COc1cccc2oc(C(=O)O)cc(=O)c12` (centres unmarked) [Example 19, 1-(2-Carboxychromon-5-yloxy)-2-Hydroxy-3-o-Cresyloxypropane Sodium Salt], the ED50 in series [1] amounted to 7 µmol/kg. In series [2], the selectivity ratio at 168 h was above 281. In addition, the “Mean Reaction Diameters … of Test Compound” value in series [3] came to 10.3 ± 0.2 Milimeters.

`O=C(O)c1cc(=O)c2c(OCC(O)COc3ccc(Cl)cc3Cl)cccc2o1` (centres unmarked) [Example 62, 1-(2-Carboxychromon-5-yloxy)-2-Hydroxy-3-(2,4-dichlorophenoxy) propane Sodium Salt]: the “Mean Reaction Diameters … of Test Compound” value in series [3] is given as 1.3 ± 0.5 Milimeters.
